These results are taken from EP1984353B1, “AURORA KINASE MODULATORS AND METHOD OF USE” (Amgen, Inc, priority 2006, dated 2007).

Test [1] addresses T1, AuroraA-TPX2 (Homo sapiens, UniProt O14965).
T1 construct: 20 µL of AuroraA-TPX2 KD GST; GST
T1 sequence (O14965 133-383 limits assumed): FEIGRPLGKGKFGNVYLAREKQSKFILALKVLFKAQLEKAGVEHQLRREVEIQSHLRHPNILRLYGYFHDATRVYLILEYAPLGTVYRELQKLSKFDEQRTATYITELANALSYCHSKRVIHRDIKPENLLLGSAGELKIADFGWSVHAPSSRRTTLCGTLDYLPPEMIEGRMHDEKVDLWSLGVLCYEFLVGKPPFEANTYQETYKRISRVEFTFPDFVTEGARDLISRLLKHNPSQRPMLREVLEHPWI
T1 sequence (Q9ULW0 1-43 partner limits assumed): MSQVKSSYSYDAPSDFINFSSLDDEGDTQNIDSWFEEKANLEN
The test can be described thus: AuroraA-TPX2 Homogeneous Time Resolved Fluorescent (HTRF) kinase assay. It counts as biochemical. The following applies: average; given as class symbols; read-out: AurA/TP X2_ IC50_IP (Avg). In a few lines: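 HTRF read-out: europium anti-phosphoPLK antibody (0.02 nM) plus streptavidin-APC detect phosphorylated biotin-PLK after EDTA stop and overnight equilibration. Kinase step runs about 120 min with Aurora-A/TPX2, ATP and roughly 1 µM PLK peptide at pH 7.5 HEPES buffer with Mg2+ and DTT.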
(In general: Time-resolved FRET reads energy transfer from a long-lived donor to a nearby acceptor.)

The target in test [2] is T2, AuroraB (Homo sapiens, UniProt Q96GD4).
T2 construct: 20 µL of AuroraB FL His; His
The test can be described thus: AuroraB Homogeneous Time Resolved Fluorescent (HTRF) kinase assay. It is filed as biochemical. The conditions noted are these: average; given as class symbols; read-out: AurB_ _IC50_IP (Avg). In a few lines:
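HTRF read-out: after EDTA stop and ~60 min with europium anti-phospho-H3 antibody and streptavidin-APC, 655/615 nm ratio reports phosphorylation. Reaction: 400 pM AuroraB FL His, 23 µM ATP (at Km(app)), 0.1 µM biotin-Histone H3 peptide, 50 mM HEPES pH 7.5, MgCl/MnCl, ~90 min.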

T2 sequence (Q96GD4 whole entry): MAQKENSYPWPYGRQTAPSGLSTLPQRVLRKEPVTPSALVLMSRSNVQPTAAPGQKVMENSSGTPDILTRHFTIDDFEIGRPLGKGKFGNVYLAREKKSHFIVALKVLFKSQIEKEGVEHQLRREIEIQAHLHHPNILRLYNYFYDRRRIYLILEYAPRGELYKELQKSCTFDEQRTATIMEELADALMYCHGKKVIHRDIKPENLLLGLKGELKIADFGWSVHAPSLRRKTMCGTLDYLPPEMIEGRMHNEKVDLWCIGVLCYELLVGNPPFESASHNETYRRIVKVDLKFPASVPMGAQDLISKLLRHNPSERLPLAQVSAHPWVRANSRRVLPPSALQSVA

In the case of `Nc1nccc(-c2cccnc2Oc2ccc(Nc3nnc(-c4cccc(OP(=O)(O)O)c4)c4ccccc34)cc2)n1` [compound 366, 3-(4-((4-((3-(2-amino-4-pyrimidinyl)-2-pyridinyl)oxy)phenyl)amino)-1-phthalazinyl)phenyl dihydrogen phosphate], the IC50 in test [1] and in test [2] was 0.1 to 0.5 µM each time.

Regarding `OCCCNc1nccc(-c2cccnc2Oc2ccc(Nc3nnc(-c4ccccc4)c4ccccc34)cn2)n1` [compound 367, 3-((4-(2-((5-((4-phenyl-1-phthalazinyl)amino)-2-pyridinyl)oxy)-3-pyridinyl)-2-pyrimidinyl)amino)-1-propanol], the IC50 in test [1] and in test [2] was at most 0.1 µM throughout.

As to `Nc1nccc(-c2cccnc2Oc2ccc(Nc3nnc(-c4ccccc4OP(=O)(O)O)c4ccccc34)cc2)n1` [compound 368, 2-(4-((4-((3-(2-amino-4-pyrimidinyl)-2-pyridinyl)oxy)phenyl)amino)-1-phthalazinyl)phenyl dihydrogen phosphate], the IC50 in test [1] and in test [2] was 0.5 to 2.5 µM throughout.

Consider `C[C@H](O)c1cccc(-c2nnc(Nc3ccc(Oc4ncccc4-c4ccnc(N)n4)nc3)c3ccccc23)c1` [compound 369, (1S)-1-(3-(4-((6-((3-(2-amino-4-pyrimidinyl)-2-pyridinyl)oxy)-3-pyridinyl)amino)-1-phthalazinyl)phenyl)ethanol], for which the IC50 in test [1] and in test [2] was at most 0.1 µM throughout.

Consider `Cc1cc(-c2cccc(CO)c2)nnc1Nc1ccc(Oc2ncccc2-c2ccnc(N)n2)cc1` [compound 370, (3-(6-((4-((3-(2-amino-4-pyrimidinyl)-2-pyridinyl)oxy)phenyl)amino)-5-methyl-3-pyridazinyl)phenyl)methanol], for which the IC50 in test [1] and in test [2] was at most 0.1 µM in each case.

Take `Nc1cc(-c2cccnc2Oc2ccc(Nc3nnc(-c4ccccc4O)c4ccccc34)cc2)ccn1` [compound 371, 2-(4-((4-((2'-amino-3,4'-bipyridin-2-yl)oxy)phenyl)amino)-1-phthalazinyl)phenol]: the values for the IC50 in test [1] and in test [2] were 0.1 to 0.5 µM and at most 0.1 µM, respectively.

For `COc1ccc(F)c(-c2nnc(Nc3ccc(Oc4ncccc4-c4ccnc(N)n4)cc3)c3ccccc23)c1` [compound 372, N-(4-((3-(2-amino-4-pyrimidinyl)-2-pyridinyl)oxy)phenyl)-4-(2-fluoro-5-(methyloxy)phenyl)-1-phthalazinamine], the IC50 in test [1] and in test [2] was at most 0.1 µM in each case.

As for `Nc1nccc(-c2cccnc2Oc2ccc(Nc3nnc(-c4cc(O)ccc4F)c4ccccc34)cc2)n1` [compound 373, 3-(4-((4-((3-(2-amino-4-pyrimidinyl)-2-pyridinyl)oxy)phenyl)amino)-1-phthalazinyl)-4-fluorophenol], the IC50 in test [1] and in test [2] was at most 0.1 µM in each case.

With `CN(C)CCCOc1cccc(-c2nnc(Nc3ccc(Oc4ncccc4-c4ccnc(N)n4)cc3)c3ccccc23)c1` [compound 374, N-(4-((3-(2-amino-4-pyrimidinyl)-2-pyridinyl)oxy)phenyl)-4-(3-((3-(dimethylamino)propyl)oxy)phenyl)-1-phthalazinamine], the IC50 in test [1] and in test [2] was at most 0.1 µM in each case.

With `Nc1nccc(-c2cccnc2Oc2ccc(Nc3nnc(-c4cccc(CO)c4)c4ccccc34)cn2)n1` [compound 375, (3-(4-((6-((3-(2-amino-4-pyrimidinyl)-2-pyridinyl)oxy)-3-pyridinyl)amino)-1-phthalazinyl)phenyl)methanol], the IC50 in test [1] and in test [2] was at most 0.1 µM in each case.

With `COc1ccc(F)c(-c2nnc(Nc3ccc(Oc4ncccc4-c4ccnc(N)n4)nc3)c3ccccc23)c1` [compound 376, N-(6-((3-(2-amino-4-pyrimidinyl)-2-pyridinyl)oxy)-3-pyridinyl)-4-(2-fluoro-5-(methyloxy)phenyl)-1-phthalazinamine], the IC50 in test [1] and in test [2] was at most 0.1 µM each time.

Regarding `Nc1nccc(-c2cccnc2Oc2ccc(Nc3nnc(-c4cccc(OC(F)(F)F)c4)c4ccccc34)cc2)n1` [compound 377, N-(4-((3-(2-amino-4-pyrimidinyl)-2-pyridinyl)oxy)phenyl)-4-(3-((trifluoromethyl)oxy)phenyl)-1-phthalazinamine], the IC50 in test [1] and in test [2] was at most 0.1 µM throughout.

As to `Nc1nccc(-c2cccnc2Oc2ccc(Nc3nnc(-c4cccc(OC(F)(F)F)c4)c4ccccc34)cn2)n1` [compound 378, N-(6-((3-(2-amino-4-pyrimidinyl)-2-pyridinyl)oxy)-3-pyridinyl)-4-(3-((trifluoromethyl)oxy)phenyl)-1-phthalazinamine], the IC50 in test [1] and in test [2] was at most 0.1 µM throughout.

With `Nc1nccc(-c2cccnc2Oc2ccc(Nc3nnc(-c4cc(O)ccc4F)c4ccccc34)cn2)n1` [compound 379, 3-(4-((6-((3-(2-amino-4-pyrimidinyl)-2-pyridinyl)oxy)-3-pyridinyl)amino)-1-phthalazinyl)-4-fluorophenol], the IC50 in test [1] and in test [2] was at most 0.1 µM each time.

With `COc1ccc(F)cc1-c1nnc(Nc2ccc(Oc3ncccc3-c3ccnc(N)n3)cc2)c2ccccc12` [compound 380, N-(4-((3-(2-amino-4-pyrimidinyl)-2-pyridinyl)oxy)phenyl)-4-(5-fluoro-2-(methyloxy)phenyl)-1-phthalazinamine], the IC50 in test [1] and in test [2] was at most 0.1 µM in each case.

On to `COc1ccc(F)cc1-c1nnc(Nc2ccc(Oc3ncccc3-c3ccnc(N)n3)nc2)c2ccccc12` [compound 381, N-(6-((3-(2-amino-4-pyrimidinyl)-2-pyridinyl)oxy)-3-pyridinyl)-4-(5-fluoro-2-(methyloxy)phenyl)-1-phthalazinamine], for which the values for the IC50 in test [1] and in test [2] were 0.1 to 0.5 µM and at most 0.1 µM, respectively.

As for `Nc1nccc(-c2cccnc2Oc2ccc(Nc3nnc(-c4ccccc4OC(F)(F)F)c4ccccc34)cc2)n1` [compound 382, N-(4-((3-(2-amino-4-pyrimidinyl)-2-pyridinyl)oxy)phenyl)-4-(2-((trifluoromethyl)oxy)phenyl)-1-phthalazinamine], the IC50 was 0.1 to 0.5 µM in test [1] and at most 0.1 µM in test [2].

As for `Nc1nccc(-c2cccnc2Oc2ccc(Nc3nnc(-c4ccccc4OC(F)(F)F)c4ccccc34)cn2)n1` [compound 383, N-(6-((3-(2-amino-4-pyrimidinyl)-2-pyridinyl)oxy)-3-pyridinyl)-4-(2-((trifluoromethyl)oxy)phenyl)-1-phthalazinamine], the results for the IC50 in test [1] and in test [2] were 0.5 to 2.5 µM and at most 0.1 µM, respectively.

As to `Nc1nccc(-c2cccnc2Oc2ccc(Nc3nnc(-c4ccccc4CO)c4ccccc34)cc2)n1` [compound 384, (2-(4-((4-((3-(2-amino-4-pyrimidinyl)-2-pyridinyl)oxy)phenyl)amino)-1-phthalazinyl)phenyl)methanol], the IC50 in test [1] and in test [2] was at most 0.1 µM in each case.

Turning to `Nc1nccc(-c2cccnc2Oc2ccc(Nc3nnc(-c4ccccc4CO)c4ccccc34)cn2)n1` [compound 385, (2-(4-((6-((3-(2-amino-4-pyrimidinyl)-2-pyridinyl)oxy)-3-pyridinyl)amino)-1-phthalazinyl)phenyl)methanol], the IC50 in test [1] is 0.1 to 0.5 µM; in test [2], at most 0.1 µM.

For `Nc1nccc(-c2cccnc2Oc2ccc(Nc3nnc(-c4cc(F)ccc4O)c4ccccc34)cc2)n1` [compound 386, 2-(4-((4-((3-(2-amino-4-pyrimidinyl)-2-pyridinyl)oxy)phenyl)amino)-1-phthalazinyl)-4-fluorophenol], the IC50 in test [1] and in test [2] was at most 0.1 µM each time.

As for `Nc1nccc(-c2cccnc2Oc2ccc(Nc3nnc(-c4cc(F)ccc4O)c4ccccc34)cn2)n1` [compound 387, 2-(4-((6-((3-(2-amino-4-pyrimidinyl)-2-pyridinyl)oxy)-3-pyridinyl)amino)-1-phthalazinyl)-4-fluorophenol], the IC50 in test [1] and in test [2] was at most 0.1 µM in each case.

On to `CN(C)CCCOc1cccc(-c2nnc(Nc3ccc(Oc4ncccc4-c4ccnc(N)n4)nc3)c3ccccc23)c1` [compound 388, N-(6-((3-(2-amino-4-pyrimidinyl)-2-pyridinyl)oxy)-3-pyridinyl)4-(3-((3-(dimethylamino)propyl)oxy)phenyl)-1-phthalazinamine], for which the IC50 was 0.1 to 0.5 µM in test [1] and at most 0.1 µM in test [2].

On to `CN1CCN(CCCNc2nccc(-c3cccnc3Oc3ccc(Nc4nnc(-c5ccccc5)c5ccccc45)cn3)n2)CC1` [compound 389, N-(6-((3-(2-((3-(4-methyl-1-piperazinyl)propyl)amino)-4-pyrimidinyl)-2-pyridinyl)oxy)-3-pyridinyl)-4-phenyl-1-phthalazinamine], for which the IC50 in test [1] and in test [2] was at most 0.1 µM throughout.

For `c1ccc(-c2nnc(Nc3ccc(Oc4ncccc4-c4ccnc(NCCCN5CCNCC5)n4)nc3)c3ccccc23)cc1` [compound 390, 4-phenyl-N-(6-((3-(2-((3-(1-piperazinyl)propyl)amino)-4-pyrimidinyl)-2-pyridinyl)oxy)-3-pyridinyl)-1-phthalazinamine], the IC50 in test [1] and in test [2] was at most 0.1 µM each time.
